Measured values: US4276286A, “Process for decreasing ammonia concentration in domestic animals or fowls” (Kumiai Chemical Industry Co., Ltd., priority 1975, dated 1981)

Tests used:
ammonia in excrement = assay: Ammonia concentration in excrement of chickens (Kitagawa's vacuum gas detector); format: in vivo, chicken
Text: The tests were made on commercially available chickens for exclusive use as broilers (kind: Hubbard). 150 Chickens which were just hatched (male: 75, female: 75) were divided into 3 groups, each consisting of 50 chickens. Basal diets (containing no antibiotics, see Tables 6 and 7) were given to one group, and diets containing 2.5 ppm or 10 ppm of multhiomycin were given to the other two groups. The feed was constantly supplied to each group with water for 8 weeks from the hatching. Each group was bred in one windless cage (1.8×5.4×2.7 m, 9.7 m^2 per group), and each cage was kept warm by circulating warm water under the floor until the chickens were two weeks old. Further, the floor were covered with wood chips in a depth of about 3 cm.
About 6 or 8 weeks from the beginning of the test, the ammonia concentration in excrement was measured in each group. The ammonia concentrations in the excrement were measured with Kitagawa's vacuum gas detector and the moisture content therein was measured with the hot-air drying method whereby 2 kg weight of excrement (containing chips) was treated at 100°±2° C. for 24 hours to measure its moisture content.

bacteria = assay: In vitro action on bacteria; format: cell-based
[1] = system: ammonia (NH3-N) in portal blood; assay: Ammonia concentration in portal blood of pigs (modified Fujii-Okuda method); format: in vivo, pig; conditions: 10 ppm in diet, after 2 months; for NH3-N in portal blood: control 6.80
Experimental: (§1) A deproteinizing solution was added to the sample to deproteinize the sample and remove coloration-inhibiting components therefrom and simultaneously deactivate enzymes for preventing formation of ammonia during standing. The supernatant was separated and a coloring solution containing phenol and a nitroprusside salt was added thereto. Then, an alkaline solution was added to the mixture to make it alkaline, and a coloring solution containing sodium hypochlorite was further added to effect oxidation and form indophenol showing a blue color. The absorbance of this color at 630 mμ was measured to determine the ammonia nitrogen concentration. This measurement method is expressed by the following reaction formula: [drawing 1]
(§2) Incidentally, the nitroprusside salt acts as a catalyst in the above reaction.
Young pigs just after weaning were divided into 3 groups, each consisting of 6 pigs. Diets containing 10 ppm of multhiomycin were given to one group, diets containing 10 ppm of thiopeptin as the comparative medicament were given to another group, and a medicament-free diet was given to the remaining one group (control group). After 2 months, with respect to each group, the ammonia concentrations in portal blood were determined according to the modified Fujii-Okuda method.

[2] = in vivo
[3] = Acute toxicity (general statement); format: in vivo; conditions: in comparison with other antibiotics
ammonia = assay: Ammonia concentration in the animal's body, intestine and blood or excrements (general statement); format: in vivo; conditions: compared with untreated animals
[4] = system: ammonia (NH3-N) in contents of the colon; assay: Ammonia concentration in contents of the colon of chickens (modified Fujii-Okuda method); format: in vivo, chicken; conditions: after 8 weeks, control 155
Experimental: Chickens just after hatching were divided into 5 groups, each consisting of 10 chickens. Diets containing 2.5 ppm or 5.00 ppm of multhiomycin were given to two groups, respectively, and diets containing 2.5 ppm or 5.00 ppm of thiopeptin were given to other two groups (comparative groups), respectively. A medicament-free diet was given to the remaining one group (control group). After 8 weeks, with respect to each group, the ammonia concentrations in the contents of the colon were determined according to a modification of the method of Fujii and Okuda, described hereinafter.
as §1, §2

Acidity = format: physicochemical
mice = assay: Acute toxicity in mice; format: in vivo, mouse; conditions: injection into abdominal cavity; for LD50 in words: mice, compared with multhiomycin
Experimental: Acute toxins of multhiomycin, thiopeptin and thiostrepton administered to mice, were measured by injection of each drug into the abdominal cavities of the mice.

[5] = Behavior of antibiotics in soil (microbial quantitative method); conditions: 10 μg/g added to soil, room temperature
Experimental: (§3) The rise and fall in the activity of the multhiomycin excreted without absorption in the interior of the animal body was compared with the activity of other antibiotics, such as thiopeptin and thiostrepton.
To soils (collected in Kikukawa-cho, Ogasa-gun, Shizuoka-ken, Japan) which were confirmed to have no anti-antibiotic activity were respectively added multhiomycin, thiopeptin and thiostrepton, each containing 10 μg/g concentration of each antibiotic. The soils were preserved under room temperature condition, and the remaining potencies in soils of each antibiotic were measured at different time intervals according to the microbal quantitative method.

[6] = Remaining activity of antibiotics in excrement of chickens (microbial quantitative method); conditions: 10 μg/g added to chicken excrement, room temperature
Experimental: as §3
Multhiomycin, thiopeptin and thiostrepton were respectively added to the excrement of chickens bred with the feed containing no antibiotics in a concentration of 10 μg/g. The excrement was preserved under room temperature condition and the remaining potency of each antibiotic in excrement was measured at different time intervals with a microbal quantitative method.

| Molecule | Ammonia concentration in excrement (ammonia in excrement; 2.5 ppm in diet, 6 weeks of age, control 25.5) | Ammonia concentration in excrement (ammonia in excrement; 2.5 ppm in diet, 8 weeks of age, control 29.7) | Ammonia concentration in excrement (ammonia in excrement; 10 ppm in diet, 6 weeks of age, control 25.5) | Ammonia concentration in excrement (ammonia in excrement; 10 ppm in diet, 8 weeks of age, control 29.7) | Action on bacteria (bacteria) | NH3-N in portal blood, value in parentheses (difference from control) [1] | NH3-N in portal blood [1] | Amount remaining in internal organs or muscles, in words [2] | Excretion [2] | Acute toxicity in words [3] | Ammonia in excrement of treated animals, in words (ammonia) | NH3-N in contents of colon ([4]; 2.5 ppm in diet) | NH3-N in contents of colon ([4]; 5.0 ppm in diet) | Acidity (Acidity) | Acute toxicity LD50 (mice; female mouse) | Acute toxicity LD50 (mice; male mouse) | Deaths (mice; mice, 4,000 mg/kg) | Remaining ratio in soil after 60 days [5] | LD50 in words (mice) | Remaining amount in excrement after 5 days [6] |
| --- | --- | --- | --- | --- | --- | --- | --- | --- | --- | --- | --- | --- | --- | --- | --- | --- | --- | --- | --- | --- |
| C=C(NC(=O)c1csc(-c2nc3c(cc2O)-c2nc(cs2)C(=O)NC(C(C)O)C(=O)NC(=CC)c2nc(cs2)C(=O)NC2CC(O)C(=O)OCc4cccc5[nH]c(c(C)c45)C(=O)SCC(NC(=O)c4csc2n4)c2nc-3cs2)n1)C(N)=O (stereo not drawn) [Multhiomycin] | 9.8 ppm | 11.2 ppm | 9.0 ppm | 10.0 ppm | astonishing action on bacteria | -3.36 µg/mL | 3.44 µg/mL | so little as to be not perceptible in a recognizable amount | completely excreted | low degree of acute toxicity | very small amounts of ammonia | 60 μg/g of wet matter | 46 μg/g of wet matter | slightly acidic | > 4,000 mg/kg | > 4,000 mg/kg | did not cause a single death | – | – | – |
| Thiostrepton | – | – | – | – | – | – | – | – | – | – | – | – | – | – | – | 85 mg/kg | – | 44% | small values of LD50 | 43% |
| Thiopeptin | – | – | – | – | – | -0.8 µg/mL | 6.00 µg/mL | – | – | – | – | 120 μg/g of wet matter | 100 μg/g of wet matter | – | 660 mg/kg | 780 mg/kg | – | 41% | small values of LD50 | 52% |
